Test results taken from patent US20120046321A1, “METHODS OF TREATING ATRIAL FIBRILLATION WITH P38 INHIBITOR COMPOUNDS” (INTERMUNE, INC., priority 2005, published 2012).
Entries after “also recorded” stand apart in the source; their conditions may differ.

Tests used:
Format in all cases: in vivo, canine
connexin 40 (Cx40) = test: Immunofluorescent distribution of gap junction protein in LA; details: CHF and CHF+PFD groups
Method: (§1) The distribution of gap junction proteins connexin 43 (Cx43) and connexin 40 (Cx40) in atrial tissue was also studied. Atrial specimens were incubated with mouse monoclonal antibody against Cx40 and rabbit polyclonal antibody against Cx43 (Dako) overnight at 4° C. Subsequently, incubation with FITC-labeled goat anti-rabbit (for Cx43) and Texas Red-labeled donkey anti-mouse (for Cx40) antibodies (Jackson ImmunoResearch Laboratories, West Grove, Pa.) was performed. The specimens were processed and analyzed with fluorescent microscopy.

connexin 43 (Cx43) = test: as above; details: CHF and CHF+PFD groups
Method: as §1

IL-6 = test: Western blot of atrial tissue; details: 3 groups
[1] = test system: tissue inhibitor of metalloproteinase (TIMP)-4; test: Western blot of atrial tissue; details: 3 groups
[2] = test system: canines with ventricular tachypacing (VTP)-induced congestive heart failure (CHF); test: Open-chest electrophysiology and epicardial mapping (ERP, CV, conduction heterogeneity)
From the text: Briefly, 15 adult mongrel canines (weight 20 to 32 kgs) were divided into 3 groups (n=5 in each group) as follows: Group 1: Normal; Group 2: CHF canines not treated with PFD (or CHF); and Group 3: CHF canines treated with PFD (or CHF+PFD). […] The CHF and CHF+PFD canines underwent placement of a permanent single-chamber pacemaker with the pacing lead positioned in the right ventricular apex followed by radiofrequency catheter ablation of the AV junction to create complete heart block. Canines in the CHF and CHF+PFD groups underwent 3 weeks of VTP at a rate of 220 bpm. Oral PFD (800 mg three times a day) (InterMune, Brisbane, Calif.) was started 2 days prior to the initiation of VTP and was given for the full duration of the pacing period. During the follow-up EP study, each animal was anesthetized with isoflurane and mechanically ventilated. The pacemaker rate was set at 80 bpm at twice diastolic threshold for the entire EP study. The chest was opened with a midline sternotomy. A pericardial cradle was created, and 4 custom-made, epicardial, high-density plaques (left atrial free wall (LAFW); left atrial Bachmann's bundle (LABB); right atrial free wall (RAFW); right atrial Bachmann's bundle (RABB)) were placed over the atria (512 electrodes with an inter-electrode distance of 2.5 mm), similar to the setup described in Verheule S, et al., Circulation 107:2615-22 (2003) and Sih H J, et al. J Am Coll Cardiol. 36:924-31 (2000). Unipolar electrode signals were acquired (sampling rate 2 kHz) and stored with the UnEmap mapping system (University of Auckland, New Zealand). Electrode pairs on the epicardial plaque were used for bipolar stimulation at twice diastolic threshold. Effective refractory periods (ERPs) were measured at 12 atrial sites (6 in LA, 6 in RA) using the single extrastimulus protocol (S1S2) at an 8-beat drive train basic cycle lengths (BCLs) of 200, 300, and 400 ms. During stimulation of the contralateral Bachmann's bundle, conduction velocity (CV) was calculated between pairs of plaque electrodes perpendicular to the activation wavefront with a custom-written software. Verheule S, et al., Am J Physiol Heart Circ Physiol. 2004; 287:H634-44; and Bayly P V, et al., IEEE Trans Biomed Eng. 1998; 45:563-71. Used as a marker of conduction heterogeneity (Verheule S, et al., Am J Physiol Heart Circ Physiol. 2004; 287:H634-44; Bayly P V, et al., IEEE Trans Biomed Eng. 1998; 45:563-71; and Ausma J, et al., Circulation. 1997; 96:3157-63), the phase difference (ms/mm) was defined as the average difference in activation time between a plaque electrode from all of its neighboring electrodes normalized by the inter-electrode distance. Frequency histograms were constructed for the phase differences within an atrial region. The histograms were summarized as the median phase (P50), and the 5th and 95th percentile phase, or P5 and P95 of the distribution, respectively. Two measures were derived to quantify conduction heterogeneity: 1) absolute conduction heterogeneity, defined as P95-P5 (P95-5), and 2) conduction heterogeneity index, defined as the absolute conduction heterogeneity normalized by the median phase, or P95-5/P50.

total p-38 = test: Western blot of atrial tissue; details: CHF+PFD vs CHF
Method: (§2) Expression of MAPks in atrial tissue was evaluated using Western Blot analysis. Briefly, atrial tissue specimen containing an equal amount of total protein (10 μg) was electrophoresed on a 4-20% Tris-glycine gel and then transferred onto a nitrocellulose filter. Non-specific binding sites were blocked with 4% BSA, and the filter was incubated with diluted antibody and a matched secondary antibody (all antibodies were obtained from Chemicon, Temecular, Calif.). Protein bands were analyzed with an enhanced chemiluminescence detection method using horseradish peroxidase, based on the recommendations from the manufacturer (NEN Life Science, Boston, Mass.).

[3] = test system: total c-Jun N-terminal kinase (JNK); test: Western blot of atrial tissue; details: CHF+PFD vs CHF
Method: as §2

[4] = test system: total extracellular signal-regulated protein kinase (ERK); test: Western blot of atrial tissue; details: CHF+PFD vs CHF
Method: as §2

[5] = test system: canines with heart failure produced by 4 weeks of rapid ventricular pacing; test: AF inducibility after PFD started once 4 weeks of rapid ventricular pacing ended (Example 7); details: two canines, pacemakers turned off at 4 weeks, then PFD for 3 weeks
Method: AF inducibility was assessed by both the single-extrastimulus protocol (as above) and a burst pacing protocol which consisted of pacing at one LA site and one RA site. A total of 16 burst stimulations were carried out for each animal with each atrial site receiving 8 burst […] (4 for a duration of 6 seconds and 4 for 12 seconds) at a CL of 50 ms and a stimulus output of 0.5 V+twice diastolic threshold. AF was considered sustained if the induced episode lasted >[…] at which time the longest AF duration was taken as 3600 seconds and used for analysis. Two adult mongrel canines (weight 20 to 32 kgs) with heart failure produced by 4 weeks of rapid ventricular pacing as described above were evaluated for AF inducibility following PFD treatment. Briefly, pacemakers were turned off at 4 weeks and PFD started for 3 weeks. A follow-up study for AF inducibility after 3 weeks of PFD treatment was performed as described above.

IL-10 = test: Western blot of atrial tissue; details: 3 groups

With `Cc1ccc(=O)n(-c2ccccc2)c1` [PFD, 5-methyl-1-phenyl-2-(1H)-pyridone] as the molecule, how does the “Spatial distribution of Cx40 in LA, treated vs untreated” value (connexin 40 (Cx40)) read?
The value was “did not appear markedly different”.

What about the “Spatial distribution of Cx43 in LA, treated vs untreated” value (connexin 43 (Cx43)) of the same molecule?
Its value is “did not appear markedly different”.

What about the “Expression of IL-6” value (IL-6) of the same molecule?
Its value is “unchanged; also recorded: not markedly different”.

What about the “Expression of TIMP-4” value [1] of the same molecule?
Its value is “unchanged; also recorded: not markedly changed”.

What about the “LA CVs compared with the untreated group” value ([2]; 3 pacing BCLs) of the same molecule?
The value was “non-statistically significant increase”.

And the “LA ERPs” value ([2]; BCLs 200, 300, 400 ms, p=NS vs untreated, p<0.03 vs Normal)?
Its value is “further lengthening”.

And the “Conduction heterogeneity index (P95-5/P50) in the LA” value ([2]; all BCLs, p<0.02 at 300 and 400 ms)?
Its value is “reduction”.

What about the “Absolute conduction heterogeneity (P95-5) in the LA” value ([2]; all BCLs, p<0.04 at 400 ms) of the same molecule?
Its value is “reduction”.

What about the “Absolute conduction heterogeneity (P95-5) in the RA” value ([2]; p<0.003 at 400 ms) of the same molecule?
The value was “decrease”.

What about the “Conduction heterogeneity index (P95-5/P50) in the RA” value ([2]; p<0.003 at 400 ms) of the same molecule?
The value was “decrease”.

And the “Local conduction heterogeneity in isochronal activation maps” value ([2]; pacing CL 300 ms, 4 atrial plaques)?
The value was “less”.

And the “Expression of total p-38” value (total p-38)?
The value was “downregulation; also recorded: reduced”.

What about the “Expression of total JNK (c-Jun)” value [3] of the same molecule?
Its value is “downregulation; also recorded: reduced”.

And the “Expression of total ERK” value [4]?
Its value is “downregulation; also recorded: reduced”.

What about the “AF inducibility after 3 weeks of PFD treatment” value [5] of the same molecule?
The value was “AF was not found”.

And the “Expression of IL-10” value (IL-10)?
Its value is “unchanged; also recorded: not markedly different”.
